According to patent US20250339445A1, “Modulators of Orphan Nuclear Receptors for Treating Pancreatitis, Glioblastoma, Sarcopenia and Stroke” (Emory University, priority 2020, published 2025):
“Also recorded” adds a separate entry of the source.

How the values were obtained:
[1] = tested on: miR-122; assay: Expression and secretion of RORα-regulated microRNA in Huh-7 cells (qRT-PCR); assay type: cell-based, human
Procedure: Secreted microRNA levels in the medium of Huh-7 cells were analyzed by qRT-PCR and were normalized to spiked C. elegans miR-39. miR-18 and miR-93 served as controls for secreted microRNA and were not affected following Compound 1 addition.
RNA extraction and quantitative Real-Time PCR analysis. Total RNA, including small RNAs, were isolated from […] of plasma or culture media samples using the miRNeasy Mini kit (Qiagen, Valencia, CA, USA) with 2 minor modifications. First, 200 μl of plasma or culture media were lysed with 1 ml of Qiazol solution. Second, a 50 pmol/1 of synthesized single strand Caenorhabditis elegans miRNA (cel-miR-39) was added as the spike-in control to monitor extraction efficiency. The remainder of the RNA extraction was performed according to the manufacturer's instructions. miRNAs were eluted with 30 μl of RNase-free water. Total RNA, including miRNAs, from cells or tissues were isolated using TRIzol reagent (Invitrogen, Carlsbad, CA, USA). cDNA was synthesized using the Quanta Biosciences qScript™ cDNA Synthesis Kit (95047-100) for mRNA analysis, and using the qScript™ microRNA cDNA Synthesis Kit (95107-100) for miRNAs analysis. qRT-PCR of miRNAs and mRNA was performed using the ABI 7900 HT Real-Time PCR System and a SYBR Green PCR Kit: Quanta Cat. #84018 and #84071 respectively. The fold expression and statistical significance were calculated using the 2-ΔΔ Ct method. All experiments were performed in triplicates.

[2] = tested on: RORα-regulated genes; assay: Modulation of RORα-regulated genes in healthy C57BL/6 mice, single injection; assay type: in vivo
Procedure: Healthy C57BL/6 mice were injected i.p. once with 7.5 mg/kg Compound 1 or saline control. Mice were sacrificed at 1, 2, and 7 day time points post-injection. miR-122 and Gpase 6 mRNA levels were determined by qRT-PCR for each time point. MicroRNA levels were normalized to RNU6; plasma miR-122 was normalized to spiked in C. elegans miR-39; and mRNA levels were normalized to HPRT.
Compound 1 and AntagomiR injections to mice. C57BL/6 male mice, 7-8 weeks old, or Sgp130FC, 9-month-old male mice, were injected i.p. with 7.5 mg/kg Compound 1 dissolved in saline and 3% DMSO. Saline was injected as control. Mice were hydrodynamic tail vain injected with antagomiR-122 or antagomiR-control (negative control) (5 μg/mouse in 1.5 ml saline). Mice were sacrificed according to the legend of the figure describing the experimental results and the livers, white adipose and skeletal muscle tissues were frozen in liquid nitrogen or in OCT embedded frozen blocks, for further RNA and histologic analysis. AntagomiRs were obtained from Sigma Aldrich, see Table 3.

[3] = tested on: high fat diet (HFD) C57BL/6 mice; assay: HFD-fed C57BL/6 mice, 15 mg/kg Compound 1 (Example 8); assay type: in vivo
Procedure: (§1) Male C57BL/6J mice, 7 to 8 weeks old, were housed randomly in standard cages and were fed a HFD, or atherogenic diet (consisting 1% Chol and 0.5% cholic acid, see also Table 6). All mice had free access to water during the experimental period. During the feeding period body weight was monitored every 3 days. In the HFD experiment, after 4 or 6 weeks, the resultant obese mice were treated with antagomiR-122 (5 μg/mouse once a week for 3 weeks), or i.p. injected with Compound 1 (RORα agonist, 7.5 mg/kg twice a week for 3 weeks; or 15 mg/kg 3 times a week for 3 weeks). The obese control (HFD) group was administered only saline with DMSO and antagomiR-control. After 3 weeks of treatment mice were sacrificed and livers were taken for RNA-seq analysis. Livers, white adipose, and skeletal muscle tissues were frozen in liquid nitrogen or in optimum cutting temperature embedded frozen blocks, for further RNA and histologic analysis. In the atherogenic diet experiment mice were treated with 15 mg/kg Compound 1 after 3 weeks with the diet. After 3.5 weeks of treatment, mice were sacrificed, and the livers were frozen in liquid nitrogen or in optimum cutting temperature embedded frozen blocks. Plasma was collected from atherogenic diet-fed mice and saved in −20° C. for ALT and AST analysis using the Reflotron® Analyzer and test-strips (Roche).
Experimental design: C57BL/6 mice fed for 6 weeks with high fat diet (HFD) were injected with 15 mg/kg Compound 1 (or saline+DMSO) 3 times a week for 3 weeks (n=6).

[4] = Plasma half-life; assay type: in vivo, mice; settings: mouse, read-out: plasma t1/2 (converted)
[5] = tested on: atherogenic diet C57BL/6 mice; assay: Atherogenic (fibrotic) diet mouse model; assay type: in vivo
Procedure: as §1
Livers and adipose samples were placed in 4% buffered formaldehyde for 24 hours, followed by 80% ethanol and then embedded in paraffin blocks. Liver and adipose tissues were cut into […], deparaffinized with xylene and hydrated through graded ethanol. For the H&E staining, tissue sections were stained with hematoxylin (Emmonya Biotech Ltd.) and eosin (Leica, Surgipath). Liver macrophages were stained using rat anti-mouse F4/80 antigen (Serotec), followed by anti-Rat HRP (Histofine) and developed with a DAB kit (Zymed). Liver sections were stained for Masson Trichrome (Sigma). Liver CD3+ T cells were stained using Rat anti human-CD3-antibody (Bio-Rad), followed by anti-Rat HRP (Histofine) and developed with AEC (Invitrogen). α-SMA positive cells were stained using mouse anti-Human smooth Muscle Actin antibody (Dako), followed by anti-mouse HRP (Dako) and developed with DAB. The percentage area stained positively per high power field was calculated by ImageJ Software in 5-10 random fields.
Experimental design: C57BL/6 mice fed for 3 weeks with atherogenic diet (to induce fibrosis) and injected with 15 mg/kg Compound 1 (or saline+DMSO) 3 times a week for 3.5 week (n=8).
After 3 weeks of treatment mice were sacrificed and livers were taken for RNA-seq analysis. Livers, gonadal white adipose, and skeletal muscle tissues were frozen in liquid nitrogen or in optimum cutting temperature embedded frozen blocks, for further RNA and histologic analysis. In the atherogenic diet experiment mice were treated with 15 mg/kg Compound 1 after 3 weeks with the diet. After 3.5 weeks of treatment, mice were sacrificed, and the livers were frozen in liquid nitrogen or in optimum cutting temperature embedded frozen blocks. Plasma was collected from atherogenic diet-fed mice and stored at −20° C. for ALT and AST analysis using the Reflotron® Analyzer and test-strips (Roche).

[6] = atherogenic diet, 15 mg/kg 3 times a week for 3.5 weeks
[7] = atherogenic diet, 3 times weekly for 3.5 weeks
[8] = liver, atherogenic diet, 15 mg/kg 3 times a week for 3.5 weeks

Which “Secreted control microRNA (miR-18, miR-93) in Huh-7 medium” value ([1]; 1 μM, 24 hours) does the source give for `O=C1Nc2cc(C(=O)N3CCC(Cc4ccccc4)CC3)ccc2Nc2ccccc21` [Compound 1] here?
Its value is “not affected”.

What about the “Secreted miR-122 level in Huh-7 medium” value ([1]; 1 μM, 24 hours) of the same molecule?
The value was “increases secretion of miR-122”.

And the “Cellular miR-122 levels” value ([1]; Huh7, 16 h exposure)?
The value was “did not change”.

What about the “miR-122 secreted to the medium” value ([1]; Huh7, 16 h exposure) of the same molecule?
Its value is “significant miR-122 was secreted to the medium; also recorded: significant amount of MIR122 was secreted to the medium”.

What about the “Gpase6 (G6Pase) mRNA, RORα target gene” value ([2]; 7.5 mg/kg i.p. once, liver, up to 7 days) of the same molecule?
Its value is “significantly up-regulated; also recorded: increase”.

And the “miR-18 and miR-126 levels (controls)” value ([2]; 7.5 mg/kg i.p. once, over 7 days)?
The value was “not affected”.

And the “miR-122 levels in plasma and liver” value ([2]; 7.5 mg/kg i.p. once, up to 7 days post-injection)?
Its value is “increased”.

And the “Hepatic MIR122 precursors (pri-MIR122 and pre-MIR122)” value ([2]; single administration)?
The value was “increase”.

What about the “Mature MIR122 levels in WAT, muscle and heart tissues” value ([2]; single administration) of the same molecule?
The value was “increased significantly”.

What about the “Three MIR122 target genes in heart tissue” value ([2]; single administration) of the same molecule?
Its value is “significantly down-regulated”.

And the “AldoA, MIR122 target” value ([2]; single administration, liver)?
The value was “decrease”.

And the “Expression of RORα-regulated genes FGF21 and Gpase6” value ([3]; HFD 6 weeks, 15 mg/kg 3 times a week for 3 weeks, liver)?
Its value is “significantly induced expression”.

What about the “miR-122 and precursors in plasma and liver” value ([3]; HFD 6 weeks, 15 mg/kg 3 times a week for 3 weeks, 15 mg/kg) of the same molecule?
The value was “induced expression and secretion; also recorded: increased”.

And the “Hepatic synthesis of triglycerides” value ([3]; mice fed a HFD or atherogenic diet)?
Its value is “reduced hepatic synthesis of triglycerides”.

And the half-life [4]?
Its half-life is 2.7 h.

And the “Liver vasculature by CD34 staining” value ([5]; atherogenic diet)?
Its value is “no effect”.

And the “NK cells in the livers” value ([5]; atherogenic diet)?
The value was “significant reduction in NK cells”.

What about the “Biomarkers of inflammation (Tgfb2 and TgfbR2) and fibrosis (Acta1, Col1A1 and Col3A1), liver mRNA” value [5, 6] of the same molecule?
The value was “reducing”.

And the “Mature miR-122 in tissue (liver) and plasma” value [5, 6]?
Its value is “increased”.

And the “ALT and AST plasma levels (liver enzymes)” value ([5]; atherogenic diet, 15 mg/kg 3 times a week for 3.5 weeks, 15 mg/kg)?
The value was “significantly improved; also recorded: reducing significantly”.

What about the “Liver fibrosis (Masson Trichrome and αSMA staining)” value [5, 7] of the same molecule?
The value was “significant reduction in liver fibrosis”.

And the “Liver inflammation (H&E, CD3 and F4/80 staining)” value [5, 7]?
The value was “significantly improved liver inflammation; also recorded: improved liver inflammation significantly”.

What about the “Immune infiltrate by H&E staining” value [5, 8] of the same molecule?
Its value is “decreased immune infiltrate”.

And the “Myeloid infiltrate by F4/80 staining” value [5, 8]?
The value was “decreased levels of myeloid infiltrate”.

What about the “T-cell density by CD3 staining” value [5, 8] of the same molecule?
Its value is “decreased T-cell density”.

And the “Reduction of fibrotic area, Masson Trichrome (M.T)” value ([5]; liver, versus untreated cohort)?
The value was 5 fold.

And the “Reduction of fibrotic area, α-SMA” value ([5]; liver, versus untreated cohort)?
The value was 7 fold.
